Experimental data published in patent US20220119354A1, “DIAMINO-SUBSTITUTED PYRIDINES AND PYRIMIDINES AS HERBICIDES” (FMC Corporation, priority 2019, published 2022).

Columns and labels:
kochia (Kochia scoparia) = assay: Test A preemergence, kochia; format: in vivo; conditions: 0 to 100 scale, 0 is no effect, 100 is complete control
Procedure, shortened: (§1)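 Compound, in a non-phytotoxic solvent blend containing surfactant, is sprayed onto soil immediately after sowing or onto young plants (one- to two-leaf, 2–10 cm). After roughly 10 d under greenhouse conditions, injury is judged by eye relative to untreated plants on a 0–100 control scale.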

[1] = system: foxtail, giant (Setaria faberii); assay: Test A postemergence, giant foxtail; format: in vivo; conditions: Setaria faberi, post-emergence, 240 h, 0 to 100 scale, 0 no effect, 100 complete control, read-out: Plant response rating, Foxtail, Giant; for pest or weed control at 125 g/ha: 125 g ai/ha; for pest or weed control at 500 g/ha: 500 g ai/ha
Procedure, shortened: as §1

[2] = system: ryegrass, Italian (Lolium multiflorum); assay: Test A postemergence, Italian ryegrass; format: in vivo; conditions: Lolium multiflorum, post-emergence, 240 h, 0 to 100 scale, 0 no effect, 100 complete control, read-out: Plant response rating, Ryegrass, Italian; for pest or weed control at 125 g/ha: 125 g ai/ha; for pest or weed control at 500 g/ha: 500 g ai/ha
Procedure, shortened: as §1

C[C@@H](Nc1ncc(C(F)(F)F)c(N)n1)c1cc2c(F)cccc2s1 [Compound 61, N2-[(1R)-1-(4-fluorobenzo[b]thien-2-yl)ethyl]-5-(trifluoromethyl)-2,4-pyrimidinediamine]
Kochia plant response rating (kochia (Kochia scoparia); 125 g ai/ha): 90
Kochia plant response rating (kochia (Kochia scoparia); 500 g ai/ha): 90
pest or weed control at 125 g/ha [1]: 90%
pest or weed control at 500 g/ha [1]: 90%
pest or weed control at 125 g/ha [2]: 50%
pest or weed control at 500 g/ha [2]: 90%
melting point: 137 to 141 °C

C[C@@H](Nc1ncc(C(F)(F)F)c(N)n1)c1cc2cccc(F)c2o1 [Compound 71, N2-[(1R)-1-(7-fluoro-2-benzofuranyl)ethyl]-5-(trifluoromethyl)-2,4-pyrimidinediamine]
Kochia plant response rating (kochia (Kochia scoparia); 125 g ai/ha): 90
Kochia plant response rating (kochia (Kochia scoparia); 500 g ai/ha): 100
pest or weed control at 125 g/ha [1]: 60%
pest or weed control at 500 g/ha [1]: 90%
pest or weed control at 125 g/ha [2]: 30%
pest or weed control at 500 g/ha [2]: 70%

C[C@@H](Nc1ncc(C(F)(F)F)c(N)n1)c1cc2c(F)cccc2o1 [Compound 73, N2-[(1R)-1-(4-fluoro-2-benzofuranyl)ethyl]-5-(trifluoromethyl)-2,4-pyrimidinediamine]
Kochia plant response rating (kochia (Kochia scoparia); 125 g ai/ha): 100
Kochia plant response rating (kochia (Kochia scoparia); 500 g ai/ha): 100
pest or weed control at 125 g/ha [1]: 70%
pest or weed control at 500 g/ha [1]: 100%
pest or weed control at 125 g/ha [2]: 90%
pest or weed control at 500 g/ha [2]: 100%

C[C@@H](Nc1ncc(C(F)(F)F)c(N)n1)c1cc2cccc(F)c2s1 [Compound 75, N2-[(1R)-1-(7-fluorobenzo[b]thien-2-yl)ethyl]-5-(trifluoromethyl)-2,4-pyrimidinediamine]
Kochia plant response rating (kochia (Kochia scoparia); 125 g ai/ha): 90
Kochia plant response rating (kochia (Kochia scoparia); 500 g ai/ha): 100
pest or weed control at 125 g/ha [1]: 60%
pest or weed control at 500 g/ha [1]: 90%
pest or weed control at 125 g/ha [2]: 0%
pest or weed control at 500 g/ha [2]: 50%
